Data on two compounds can be found in article PMC2859942 (PLoS ONE, 2010).

Assay [1] relates to recombinant viruses (patient IN amplicons in pHXB2-ΔIN backbone) in MT4-LTR-eGFP cells. Kind of assay: Drug susceptibility testing of replication-competent recombinant viruses (phenotypic sensitivity, eGFP readout). The format is cell-based, HIV-1. Conditions: for EVG FC (elvitegravir sensitivity fold-change in IC50): vs IIIB HIV-1 wild-type reference.
The test system of assay [2] is IN WT, IN Y143C and IN Y143R. It is filed as biochemical, HIV-1. Conditions: strand transfer observed in the 3′end processing assay, uncleaved substrate, three enzymes.
[3] abbreviates: samples with the Y143C/H/R mutations.

The structures appear in SMILES notation.

As for `COc1cc2c(cc1Cc1cccc(Cl)c1F)c(=O)c(C(=O)O)cn2[C@H](CO)C(C)C` [EVG, elvitegravir], the “EVG FC (elvitegravir sensitivity fold-change in IC50)” value in assay [1] (patient 1, D0, integrase mutations V72I I203M) was 0.89; in assay [1] (patient 1, M3 on RAL, V72I L74L/M T97A/T Y143C I203M) it was 1.56; in assay [1] (patient 1, M9 (RAL removed after month 6), V72I I203M), 0.83; in assay [1] (patient 1, M12 (RAL removed after month 6), V72I I203M) it was 1.43; in assay [1] (patient 2, D0, V151I/V) it was 0.94; in assay [1] (patient 2, M3 on RAL, N155N/H), 6.05. The “EVG FC (elvitegravir sensitivity fold-change in IC50)” value in assay [1] (patient 2, M6 on RAL, T97A/T G163G/R Y143Y/C/H/R) is given as 6.23; in assay [1] (patient 2, M9 on RAL, T97A/T G163G/R Y143Y/C/H/R) it was 2.68; in assay [1] (patient 3, D0, V72I) it was 0.60; in assay [1] (patient 3, M6 on RAL, V72I T97A/T Y143C/H/R/Y), 3; in assay [1] (patient 3, M12 on RAL, V72I T97A/T Y143C/H/R/Y), 9.57. Further, the “median EVG FC” value in assay [1] (setting [3]) is 3. The “range of EVG FC” value in assay [1] (setting [3]) is 1.56–9.57.
As for `Cc1nnc(C(=O)NC(C)(C)c2nc(C(=O)NCc3ccc(F)cc3)c(O)c(=O)n2C)o1` [RAL, raltegravir], in assay [2], the “concentration of drug for complete inhibition of ST” value is given as 0.4 µM. For the same compound, in assay [1] (setting [3]), the “median RAL FC” value is given as 24.83 and the “range of RAL FC” value was 5.87–51.95.
